Columns and labels:
[1] = system: ER-positive breast cancer; assay: 5 years of adjuvant tamoxifen in patients with ER-positive breast cancer: distant relapse; type: in vivo, human; details: for 10-year distant metastasis-free survival: adjuvant tamoxifen
Description: To examine the value of Tau as predictor of survival after 5 years of adjuvant tamoxifen therapy, we used data provided by the Institut Jules Bordet. This included gene expression and survival data on 267 patients with ER-positive tumors treated with adjuvant tamoxifen. […] In all data sets, ER-status was determined from routine pathological assessment including immunohistochemistry or ER-ligand-binding assay for the older specimens. The cut-off for ER-positivity was 10 fmol/mg protein or >10% positive cells by immunohistochemistry.
This test was used because of the non-normal distribution of Tau. The prognostic value of Tau in untreated and tamoxifen-treated patients was assessed by examining the association between Tau expression and the occurrence of distant metastases using the Wilcoxon test. To assess if covariates including grade, tumor size and nodal status were associated with Tau levels we performed multivariate linear regression analysis. Kaplan-Meier survival curves were compared using the Log-rank test. In order to generate Kaplan-Meier curves, patients had to be assigned to various Tau expression groups. However, no cut off points have been established previously to assign low or high Tau status to cases based on microarray results. Furthermore, normalized expression values differed between the data sets, particularly for the prognostic data set that used different normalization procedure. In the absence of accepted cut off values and considering the non-normal expression distribution of Tau, we grouped patients by tertiles and quartiles.

breast cancer cells = assay: Drug sensitivity of breast cancer cells after down regulation of Tau by siRNA; type: cell-based; details: cancer cells in vitro
Description: Low expression of Tau is associated with known clinicopathological predictors of response to chemotherapy such as ER-negative status and high nuclear grade. However, in contrast to these predictors that are not treatment regimen-specific, low Tau may predict extreme sensitivity to a particular drug, paclitaxel. Since Tau is a microtubule associated protein, Tau has a mechanistic role in determining cellular response to paclitaxel, which is a microtubule poison.
The inventors have validated this association at the protein level on an independent set of patients (n=122) using immunohistochemistry. […] Tau partially protects cells from paclitaxel induced apoptosis by reducing paclitaxel binding to tubulin and reducing paclitaxel induced microtubule polymerization. […] As described herein, low levels of Tau mRNA expression as measured by, but not limited to, cDNA microarrays or Tau protein expression detected by immunohistochemistry, are associated with higher rates of pathologic CR to T/FAC pre-operative chemotherapy for stage I-III breast cancer. […] Pathologic CR in this context means complete eradication of the invasive cancer from the breast and lymph nodes by chemotherapy and has consistently been associated with excellent long-term survival that is independent of other tumor characteristics.

[2] = Tamoxifen treated group (n = 267)

| Compound | Metastases within 5 years: No, patients (%) [1, 2] | Metastases within 5 years: Yes, patients (%) [1, 2] | 10-year distant metastasis-free survival ([1]; Tau mRNA levels <183) [%] | 10-year distant metastasis-free survival ([1]; Tau mRNA levels >183) [%] | change of sensitivity to the drug on down regulation of Tau with siRNA (breast cancer cells) |
| --- | --- | --- | --- | --- | --- |
| CC/C(=C(\c1ccccc1)c1ccc(OCCN(C)C)cc1)c1ccccc1 [tamoxifen] | 160 (60%) | 38 (14%) | 65 | 78 | – |
| COc1cccc2c1C(=O)c1c(O)c3c(c(O)c1C2=O)C[C@@](O)(C(=O)CO)C[C@@H]3O[C@H]1C[C@H](N)[C@@H](O)[C@H](C)O1 [epirubicin] | – | – | – | – | not to epirubicin |
| CC(=O)O[C@H]1C(=O)[C@@]2(C)[C@H]([C@H](OC(=O)c3ccccc3)[C@]3(O)C[C@H](OC(=O)[C@H](O)[C@@H](NC(=O)c4ccccc4)c4ccccc4)C(C)=C1C3(C)C)[C@]1(OC(C)=O)CO[C@@H]1C[C@@H]2O [paclitaxel] | – | – | – | – | increases their sensitivity |

From patent US20100178651A1, “Bifunctional Predictors of Cancer Treatment Sensitivity and Resistance” (priority 2006, published 2010)
